The source of these data is patent US8623429B2, “Stabilized anthocyanin compositions” (Omnica GmbH, priority 2007, dated 2014).

Data set [1] can be described thus: Example 1: stability of bilberry extract anthocyanosides, 4 hours at 37° C., pH 7.0, with/without DHLA or GSH (HPLC). Type of data set: physicochemical. The settings on record: for % left, GSH (4 hours) / Peak Area, GSH (4 hours): 20 mg reduced L-glutathione; for % left, GSH (4 hours) / Peak Area, GSH (4 hours) / % left, DHLA (4 hours) / Peak Area, DHLA (4 hours) / % left, Blank (4 hours) / Peak Area, Blank (4 hours): pH 7.0, 37° C.; for % left, DHLA (4 hours) / Peak Area, DHLA (4 hours): 30 mg dihydrolipoic acid; for Peak Area, Fresh (0 hours): bilberry extract 60 mg/100 ml sodium phosphate buffer pH 7.0, fresh sample; for % left, Blank (4 hours) / Peak Area, Blank (4 hours): unprotected.
Description: (0.048 mmol anthocyanosides expressed as cyanidin-3-O-glucoside) were added to a 100 ml flask and filled to volume with sodium phosphate buffer (5% [w/w], pH=7.0), and stirred until dissolution was complete. A 1 ml sample was taken immediately and acidified with formic acid to pH=1.0 and analyzed by HPLC for the content of anthocyanosides (Fresh Sample). The remaining solution was kept for 4 hours at 37° C. (water bath) with stirring. Thereafter another sample (Blank sample), representing unprotected degradation, was taken and acidified.
(0.048 mmol expressed as cyanidin-3-O-glucoside) were then added and the flask was filled to volume with sodium phosphate buffer (5% [w/w], pH=7.0) and kept for 4 hours at 37° C. (water bath) with stirring.
After 4 hours, samples were taken and acidified immediately with formic acid to pH=1.0 and analyzed by HPLC for the content of anthocyanosides. Degradation is expressed as decrease in peak area of individual peaks (calculated as % left after 4 hours).
Quantitation: External standardization based on linear regression analysis. The response factors of all anthocyanosides separated is quantitified against cyanidin-3-O-glucoside.
Test solutions from incubation experiments (with/without cells and with/without stabilizing agents) were used for analysis after stabilization of anthocyanosides with formic acid. Samples were cleared by filtration prior to injection on to HPLC-system.

Data set [2] in a line: Example 2: degradation over time of selected bilberry anthocyanosides at 37° C., pH 7.0, with/without GSH (HPLC). Format: physicochemical. The settings on record: pH 7.0, 37° C.; for %-residual anthocyanosides (% left): 4.30 hours. How it is done: Sample a) 60 mg bilberry extract [37% anthocyanosides] (0.048 mmol expressed as cyanidin-3-O-glucoside) were added to a 100 ml, filled to volume with sodium phosphate buffer (5% [w/w], pH=7.0) and stirred until dissolution was complete. A 1 ml sample was immediately taken and acidified with formic acid to pH=1.0 and analyzed by HPLC for the content of anthocyanosides. The remaining solution was kept at 37° C. (water bath) with stirring and additional 1 ml samples (Blank Samples), representing unprotected degradation, were sampled every 15 minutes. The samples were analyzed for selected anthocyanosides by HPLC.
Sample b) 20 mg reduced L-glutathione (0.065 mmol) were added to a 100 ml flask with 60 ml sodium phosphate buffer (5% [w/w], pH=7.0) and stirred until dissolution was complete. 60 mg bilberry extract [37% anthocyanosides] (0.048 mmol expressed as cyanidin-3-O-glucoside) were added and the flask was filled to volume with sodium phosphate buffer (5% [w/w], pH=7.0) and kept at 37° C. (water bath) with stirring. Every 15 minutes, 1 ml samples were taken and analyzed for selected anthocyanosides by HPLC.
Samples were prepared as outlined below in HPLC Analytical Method. Test stability samples were immediately acidified (to block degradation) and injected undiluted following the detailed description provided below.
HPLC Analytical Method (Materials, Instruments and Methods): […]

Consider `Oc1cc(O)c2cc(O[C@@H]3OC[C@H](O)[C@H](O)[C@H]3O)c(-c3ccc(O)c(O)c3)[o+]c2c1` [Cn-3O-Ara, Cyanidin 3-o-arabinoside], for which, in data set [1], the “% left, GSH (4 hours)” value is listed as 79.5%; the “Peak Area, GSH (4 hours)” value was 293.7; the “% left, DHLA (4 hours)” value was found to be 70.2%; the “Peak Area, DHLA (4 hours)” value came to 258.4. In addition, in data set [1], the “Peak Area, Fresh (0 hours)” value was found to be 369.6; the “% left, Blank (4 hours)” value was 38.5%; the “Peak Area, Blank (4 hours)” value stood at 142.3.

For `Oc1cc(O)c2cc(O[C@H]3OC[C@H](O)[C@H](O)[C@H]3O)c(-c3cc(O)c(O)c(O)c3)[o+]c2c1` [Dp-3O-Ara, Delphinidin 3-o-arabinoside], in data set [1], the “% left, GSH (4 hours)” value is reported as 50.2%; the “Peak Area, GSH (4 hours)” value worked out at 283.6; the “% left, DHLA (4 hours)” value is reported as 64.5%; the “Peak Area, DHLA (4 hours)” value is given as 364.4. Also, in data set [1], the “Peak Area, Fresh (0 hours)” value was 564.9; the “% left, Blank (4 hours)” value is listed as 6.9%; the “Peak Area, Blank (4 hours)” value turned out to be 39.1.

With `COc1cc(-c2[o+]c3cc(O)cc(O)c3cc2O[C@@H]2OC[C@H](O)[C@H](O)[C@H]2O)cc(OC)c1O` [Mv-3O-Ara, Malvidin 3-o-arabinoside], in data set [1], the “% left, GSH (4 hours)” value was determined as 75.0%; the “Peak Area, GSH (4 hours)” value turned out to be 81.2; the “% left, DHLA (4 hours)” value stood at 69.4%; the “Peak Area, DHLA (4 hours)” value came out at 75.2. In data set [1], the “Peak Area, Fresh (0 hours)” value stood at 108.3; the “% left, Blank (4 hours)” value was 34.0%; the “Peak Area, Blank (4 hours)” value is 36.8.

As for `COc1cc(-c2[o+]c3cc(O)cc(O)c3cc2O[C@@H]2O[C@H](CO)[C@H](O)[C@H](O)[C@H]2O)cc(OC)c1O` [Mv-3O-Gal, Malvidin 3-o-galactoside], in data set [1], the “% left, GSH (4 hours)” value turned out to be 74.4%; the “Peak Area, GSH (4 hours)” value came to 133.2; the “% left, DHLA (4 hours)” value is recorded as 62.8%; the “Peak Area, DHLA (4 hours)” value is recorded as 112.5. Also, in data set [1], the “Peak Area, Fresh (0 hours)” value is reported as 179.1; the “% left, Blank (4 hours)” value is recorded as 37.6%; the “Peak Area, Blank (4 hours)” value was found to be 67.3.

`COc1cc(-c2[o+]c3cc(O)cc(O)c3cc2O[C@@H]2O[C@H](CO)[C@@H](O)[C@H](O)[C@H]2O)cc(OC)c1O` [Mv-3O-Glc, Malvidin 3-o-glucoside]: in data set [1], the “% left, GSH (4 hours)” value is listed as 73.7%; the “Peak Area, GSH (4 hours)” value was determined as 336.2; the “% left, DHLA (4 hours)” value is 63.0%; the “Peak Area, DHLA (4 hours)” value is given as 287.4. In data set [1], the “Peak Area, Fresh (0 hours)” value turned out to be 455.9; the “% left, Blank (4 hours)” value is recorded as 36.1%; the “Peak Area, Blank (4 hours)” value is recorded as 164.7.

In the case of `COc1cc(-c2[o+]c3cc(O)cc(O)c3cc2O[C@@H]2O[C@H](CO)[C@@H](O)[C@H](O)[C@H]2O)ccc1O` [Pe-3O-Glc, Peonidin 3-o-glucoside], in data set [1], the “% left, GSH (4 hours)” value is reported as 76.9%; the “Peak Area, GSH (4 hours)” value stood at 172.0; the “% left, DHLA (4 hours)” value worked out at 62.3%; the “Peak Area, DHLA (4 hours)” value is reported as 139.2. In data set [1], the “Peak Area, Fresh (0 hours)” value is on record as 223.6; the “% left, Blank (4 hours)” value was determined as 42.4%; the “Peak Area, Blank (4 hours)” value was found to be 94.8.

For `COc1cc(-c2[o+]c3cc(O)cc(O)c3cc2O[C@@H]2OC[C@H](O)[C@H](O)[C@H]2O)cc(O)c1O.[Cl-]` [Pt-3O-Ara, Petunidin 3-o-arabinoside], in data set [1], the “% left, GSH (4 hours)” value was 69.4%; the “Peak Area, GSH (4 hours)” value stood at 97.6; the “% left, DHLA (4 hours)” value worked out at 66.6%; the “Peak Area, DHLA (4 hours)” value is 93.7. In data set [1], the “Peak Area, Fresh (0 hours)” value is 140.6; the “% left, Blank (4 hours)” value is recorded as 16.2%; the “Peak Area, Blank (4 hours)” value was 22.8.

As for `COc1cc(-c2[o+]c3cc(O)cc(O)c3cc2OC2OC(CO)C(O)C(O)C2O)cc(O)c1O` (stereo not shown) [Pt-3O-Gal, Petunidin 3-o-galactoside], the “% left, GSH (4 hours)” value in data set [1] was determined as 69.3%. The “Peak Area, GSH (4 hours)” value in data set [1] turned out to be 150.0. Moreover, the “% left, DHLA (4 hours)” value in data set [1] is on record as 61.4%. Further, in data set [1], the “Peak Area, DHLA (4 hours)” value is 132.8. Also, the “Peak Area, Fresh (0 hours)” value in data set [1] is on record as 216.4. Also, the “% left, Blank (4 hours)” value in data set [1] is given as 18.8%. Moreover, the “Peak Area, Blank (4 hours)” value in data set [1] was 40.7. Moreover, the “Peak Area” value in data set [2] (Blank Sample, 1:15 h) stood at 124.16; in data set [2] (Blank Sample, 4:15 h), 102.44; in data set [2] (Blank Sample, 4:30 h) it was 58.78; in data set [2] (Blank sample, 0:00 h), 237.44; in data set [2] (Blank sample, 0:15 h) it was 179.60; in data set [2] (Blank sample, 0:30 h) it was 203.39. For the same compound, the “Peak Area” value in data set [2] (Blank sample, 0:45 h) is 152.46; in data set [2] (Blank sample, 1:00 h) it was 161.49; in data set [2] (Blank sample, 1:45 h), 144.59; in data set [2] (Blank sample, 2:00 h), 132.38; in data set [2] (Blank sample, 2:15 h), 121.96; in data set [2] (Blank sample, 2:30 h), 96.36. Further, the “Peak Area” value in data set [2] (Blank sample, 2:45 h) is on record as 99.38; in data set [2] (Blank sample, 3:00 h), 127.47; in data set [2] (Blank sample, 3:15 h), 123.02; in data set [2] (Blank sample, 3:30 h), 98.72; in data set [2] (Blank sample, 4:00 h) it was 107.51; in data set [2] (GSH Protected Sample (20 mg), 0:30 h), 222.35. For the same compound, the “Peak Area” value worked out at 202.34 in data set [2] (GSH Protected Sample (20 mg), 1:30 h); 169.36 in data set [2] (GSH Protected Sample (20 mg), 2:30 h); 181.53 in data set [2] (GSH Protected Sample (20 mg), 3:30 h); 181.46 in data set [2] (GSH Protected Sample (20 mg), 4:30 h); 166.84 in data set [2] (GSH Protected Sample (20 mg), 4:45 h); 248.16 in data set [2] (GSH protected sample (20 mg), 0:00 h). The “Peak Area” value in data set [2] (GSH protected sample (20 mg), 0:15 h) came out at 245.04; in data set [2] (GSH protected sample (20 mg), 0:45 h), 195.63; in data set [2] (GSH protected sample (20 mg), 1:00 h), 213.84; in data set [2] (GSH protected sample (20 mg), 1:15 h), 210.34; in data set [2] (GSH protected sample (20 mg), 1:45 h), 194.88; in data set [2] (GSH protected sample (20 mg), 2:00 h) it was 193.23. Besides, the “Peak Area” value in data set [2] (GSH protected sample (20 mg), 2:15 h) is recorded as 199.06; in data set [2] (GSH protected sample (20 mg), 2:45 h), 183.97; in data set [2] (GSH protected sample (20 mg), 3:00 h) it was 189.41; in data set [2] (GSH protected sample (20 mg), 3:15 h), 185.92; in data set [2] (GSH protected sample (20 mg), 3:45 h), 173.03; in data set [2] (GSH protected sample (20 mg), 4:00 h), 193.79. The “Peak Area” value in data set [2] (GSH protected sample (20 mg), 4:15 h) is given as 179.46. The “%-residual anthocyanosides (% left)” value in data set [2] (Blank) is 25%; in data set [2] (GSH-protected) it was 67%; in data set [2] (GSH-protected, listed as petunidin-3-O-Galactose) it was 67%.

As to `COc1cc(-c2[o+]c3cc(O)cc(O)c3cc2O[C@@H]2O[C@H](CO)[C@@H](O)[C@H](O)[C@H]2O)cc(O)c1O` [Pt-3O-Glc, Petunidin 3-o-glucoside], in data set [1], the “% left, GSH (4 hours)” value amounted to 66.7%; the “Peak Area, GSH (4 hours)” value came to 315.6; the “% left, DHLA (4 hours)” value is recorded as 57.4%; the “Peak Area, DHLA (4 hours)” value was determined as 271.9. Besides, in data set [1], the “Peak Area, Fresh (0 hours)” value was found to be 473.4; the “% left, Blank (4 hours)” value was 16.6%; the “Peak Area, Blank (4 hours)” value was 78.8.
